Earlier results, collected in paper PMC6259197, “Alkaloids from Stems of Esenbeckia leiocarpa Engl. (Rutaceae) as Potential Treatment for Alzheimer Disease” (Molecules, 2010).

Key:
brine shrimp = details: alkaloids isolated from leaves of E. belizencis
[1] = tested on: Leucoagaricus gongylophorus; set-up: method as in doi:10.1590/S0103-50532002000100010; details: alkaloids from Raulinoa echinata; symbiotic fungus of leaf-cutting ants
Pectinophora gossypiella = tested on: Pectinophora gossypiella; set-up: method as in PMID 1965201; details: activity of extract attributed to leiokinine A and B

Molecule	brine shrimp toxicity LC50 (brine shrimp)	antifungal activity against Leucoagaricus gongylophorus [1]	mutagenic activity	antifeedant activity against pink bollworm (Pectinophora gossypiella)
COc1c2ccoc2nc2c(OC)c3c(cc12)OCO3 [flindersiamine]	> 1,000 ppm	antifungal activity	–	–
COc1cc2nc3occc3c(OC)c2cc1OC [kokusaginine]	367 ppm	antifungal activity	weak mutagenic activity	–
CCCc1c(OC)c(=O)c2ccccc2n1C [leiokinine A]	–	–	–	weak antifeedant activity
COc1c2cc3c(cc2nc2occc12)OCO3 [maculine]	–	antifungal activity	–	–
COc1ccc2c(OC)c3ccoc3nc2c1OC [skimmianine]	–	antifungal activity	weak mutagenic activity	–
leiokinine B	–	–	–	weak antifeedant activity
